Drawing on patent publication US12404260B2, “Pyridine rings containing derivatives as MALT1 inhibitors” (Janssen Pharmaceutica NV, priority 2019, dated 2025), this text covers IC50 for 13 molecules.

Experiment [1] concerns the target T1, full-length MALT1 protein (Strep-MALT1(1-824)-His) (Homo sapiens, UniProt Q9UDY8).
T1 construct: full-length MALT1 protein (Strep-MALT1(1-824)-His) purified from baculovirus-infected insect cells; Strep (N); His (C); made in house; host or cells: baculovirus-infected insect cells
T1 sequence (Q9UDY8 1-824): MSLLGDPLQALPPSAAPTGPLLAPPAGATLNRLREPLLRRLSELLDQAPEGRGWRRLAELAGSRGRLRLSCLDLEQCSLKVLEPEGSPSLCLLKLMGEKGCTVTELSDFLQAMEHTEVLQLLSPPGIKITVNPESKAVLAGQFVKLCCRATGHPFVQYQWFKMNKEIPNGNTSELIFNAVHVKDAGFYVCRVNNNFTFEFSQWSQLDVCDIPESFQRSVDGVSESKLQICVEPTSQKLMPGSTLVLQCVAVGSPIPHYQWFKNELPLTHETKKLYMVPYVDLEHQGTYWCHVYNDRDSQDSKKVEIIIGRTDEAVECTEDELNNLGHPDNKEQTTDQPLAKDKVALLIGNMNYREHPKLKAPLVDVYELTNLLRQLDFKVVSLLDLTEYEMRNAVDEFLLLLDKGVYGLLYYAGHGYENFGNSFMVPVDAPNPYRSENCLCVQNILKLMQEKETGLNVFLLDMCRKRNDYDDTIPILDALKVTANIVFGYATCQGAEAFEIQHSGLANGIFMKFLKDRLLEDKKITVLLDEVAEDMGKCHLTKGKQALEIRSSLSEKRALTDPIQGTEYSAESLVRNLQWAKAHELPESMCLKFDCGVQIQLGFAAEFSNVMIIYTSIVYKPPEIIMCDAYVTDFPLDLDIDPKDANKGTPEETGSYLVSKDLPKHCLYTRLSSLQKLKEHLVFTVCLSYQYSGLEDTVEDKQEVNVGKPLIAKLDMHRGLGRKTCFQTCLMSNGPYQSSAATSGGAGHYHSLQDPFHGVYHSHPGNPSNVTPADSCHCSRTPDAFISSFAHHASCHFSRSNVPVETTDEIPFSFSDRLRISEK
Description: MALT1 Biochemical Protease Assay. Conditions: 10 nM FL MALT1, 200 μM Ac-LRSR-AMC, 50 min pre-incubation, 4 h at RT; read-out: MALT1_Biochemical activity (Ac-LRSR-amc) IC50. The essentials: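 Full-length Strep-MALT1(1-824)-His from baculovirus-infected insect cells, 10 nM, preincubated with compound 50 min at RT; 200 μM Ac-LRSR-AMC (KM) in 50 mM Tris pH 7.5, 0.6 M citrate, 1 mM DTT, 1 mM EDTA, 0.05% BSA, 1.5% DMSO. Fluorescence 355/460 nm, 4 h minus time 0; 11-point 1:3 series 30 μM–0.5 nM, IC50 with Hill slope.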

Experiment [2] concerns secretion of IL10 by OCI-LY3 ABC-DLBCL cells. Nature of the experiment: Human IL10 Mesoscale assay (OCI-LY3). The class given is cell-based. Conditions: 24 h incubation, IL10 in supernatant. In short, it runs like this: (§1)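 OCI-LY3 cells (100,000/well) treated 24 h at 37° C with compounds, 9-point 1:2 dilutions from 15 μM to 58.6 nM (0.3% DMSO). Supernatant IL6 and IL10 quantified by Mesoscale electrochemiluminescence immunoassay; DMSO defined maximum signal, BTK inhibitor RN486 defined maximum inhibition.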

The test system of experiment [3] is secretion of IL6 by OCI-LY3 ABC-DLBCL cells. Nature of the experiment: Human IL6 Mesoscale assay (OCI-LY3). In kind it is cell-based. The note with it: 24 h incubation, IL6 in supernatant. In short, it runs like this:
as §1

One may read the IC50 as the midpoint of a concentration-inhibition curve. Take `CO[C@@H](C)c1c(NC(=O)Nc2cnc(-n3nccn3)c(C(F)(F)F)c2)cnc(C)c1C#N` [Co. 101]: the IC50 in experiment [1] worked out at 210 nM; in experiment [2], 150 nM; in experiment [3], 240 nM.
For `CO[C@@H](C)c1c(NC(=O)Nc2cnc(-n3nccn3)c(Cl)c2)cnc(C)c1Cl` [Co. 105] the same measures were 40 nM, 60 nM and 120 nM.
For `CO[C@@H](C)c1c(NC(=O)Nc2cnc(-n3nccn3)c(C(F)(F)F)c2)cnc(C)c1Cl` [Co. 111] the same measures were 30 nM, 60 nM and 90 nM.
The corresponding values for `CO[C@H](C)c1c(NC(=O)Nc2cnc(-n3nccn3)c(C(F)(F)F)c2)cnc(C)c1Cl` [Co. 112] are 680 nM, 480 nM and 870 nM.
In the case of `CO[C@@H](C)c1c(NC(=O)Nc2cnc(-n3ncc([C@@H](C)O)n3)c(Cl)c2)cnc(C)c1C#N` [Co. 115], the half-inhibitory concentration (IC50) in experiment [1] was 60 nM; in experiment [2] it was 100 nM; in experiment [3], 230 nM.
For `CO[C@@H](C)c1c(NC(=O)Nc2cnc(-n3nccn3)c(Cl)c2)cnc(N)c1Br` [Co. 118] the same measures were 480 nM, 1510 nM and 2750 nM.
For `CO[C@H](C)c1c(NC(=O)Nc2cnc(-n3nccn3)c(Cl)c2)cnc(N)c1Br` [Co. 119] the same measures were 20 nM, 50 nM and 90 nM.
On to `CO[C@@H](c1c(NC(=O)Nc2cnc(-n3nccn3)c(C(F)(F)F)c2)cnc(C)c1C#N)C1CC1` [Co. 121], for which the values for the IC50 in experiment [1], in experiment [2] and in experiment [3] were 20 nM, 40 nM and 60 nM, respectively.
For `CO[C@H](c1c(NC(=O)Nc2cnc(-n3nccn3)c(C(F)(F)F)c2)cnc(C)c1C#N)C1CC1` [Co. 122] the same measures were 60 nM, 130 nM and 140 nM.
With `COc1cncc(NC(=O)Nc2cnc(-n3nccn3)c(C(F)(F)F)c2)c1[C@@H](C)OC` [Co. 124], the concentration for half-maximal inhibition (IC50) is 80 nM in experiment [1], 110 nM in experiment [2] and 150 nM in experiment [3].
For `COc1cncc(NC(=O)Nc2cnc(-n3nccn3)c(C(F)(F)F)c2)c1[C@H](C)OC` [Co. 125] the same measures were 1450 nM, 2240 nM and 4570 nM.
On to `COc1nc(-n2nccn2)c(C(F)(F)F)cc1NC(=O)Nc1cnc(NC(C)(C)C)c(Br)c1C(C)OC` (stereo not drawn) [Co. 151], for which the 50% inhibitory concentration (IC50) in experiment [1] was above 30000 nM; in experiment [2] (Homo sapiens), above 15000 nM; in experiment [3] (Homo sapiens) it was above 15000 nM.
Take `COc1c(NC(C)(C)C)ncc(NC(=O)Nc2cnc(-n3nccn3)c(C(F)(F)F)c2)c1C(C)OC` (stereo not drawn) [Co. 152]: the figures for the IC50 in experiment [1], in experiment [2] (Homo sapiens) and in experiment [3] (Homo sapiens) were above 30000 nM, above 15000 nM and above 15000 nM, respectively.
